“And” between values parts separate entries of the source, which are not always exact repeats. Equal values may be shown once. Inconclusive results and toxic doses are left out. The calls were made as follows: active = survival T/C of 150% or more; inactive = T/C below 125% in these data.
System: P388 leukemia ip, CD2F1 mice, survival T/C
Test: NCI In Vivo Anticancer Drug Screen. Data for tumor model P388 Leukemia (intraperitoneal) in CD2F1 (CDF1) mice
Details: endpoint: median survival time, higher = longer survival
In short: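 Mice carrying the transplanted tumor received test compound or vehicle. Survival was recorded in each group, and the value is the treated-group measurement divided by that of the vehicle-treated control group.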

[1] = dose: 50.0 mg/kg/injection, schedule: Q01DX005 (ip), vehicle: Klucel (hydroxypropylcellulose) (HPC)
[2] = dose: 100.0 mg/kg/injection, schedule: Q01DX005 (ip), vehicle: Klucel (hydroxypropylcellulose) (HPC)
[3] = dose: 200.0 mg/kg/injection, schedule: Q01DX005 (ip), vehicle: Klucel (hydroxypropylcellulose) (HPC)

Measured: T/C

Cc1nc2ccccc2nc1CBr
inactive: dose: 5.56 mg/kg/injection, schedule: Q01DX009 (ip), vehicle: saline with Tween-80 110 % of control | dose: 8.33 mg/kg/injection, schedule: Q01DX009 (ip), vehicle: saline with Tween-80 120 % of control | dose: 18.7 mg/kg/injection, schedule: Q01DX009 (ip), vehicle: saline with Tween-80 120 % of control

CCC1C(=O)OCCOCCOCCOCCOC1=O
inactive: dose: 100.0 mg/kg/injection, schedule: Q04DX003 (ip), vehicle: Klucel (hydroxypropylcellulose) (HPC) 106 % of control | dose: 200.0 mg/kg/injection, schedule: Q04DX003 (ip), vehicle: Klucel (hydroxypropylcellulose) (HPC) 100 % of control | dose: 400.0 mg/kg/injection, schedule: Q04DX003 (ip), vehicle: Klucel (hydroxypropylcellulose) (HPC) 107 % of control

S=C(Nc1ccc(Br)c(Cl)c1)SCc1ccc2c(c1)OCO2
inactive: dose: 25.0 mg/kg/injection, schedule: Q01DX009 (ip), vehicle: Klucel (hydroxypropylcellulose) (HPC) 121 % of control | dose: 50.0 mg/kg/injection, schedule: Q01DX009 (ip), vehicle: Klucel (hydroxypropylcellulose) (HPC) 107 % of control | dose: 50.0 mg/kg/injection, schedule: Q01DX009 (ip), vehicle: suspension in saline 105 % of control | dose: 100.0 mg/kg/injection, schedule: Q01DX009 (ip), vehicle: Klucel (hydroxypropylcellulose) (HPC) 123 % of control | dose: 100.0 mg/kg/injection, schedule: Q01DX009 (ip), vehicle: suspension in saline 104 % of control | dose: 200.0 mg/kg/injection, schedule: Q01DX009 (ip), vehicle: suspension in saline 116 % of control

C=CCN(CC=C)C(CC(=O)C(C)(C)C)=NCC
inactive: dose: 12.5 mg/kg/injection, schedule: Q01DX009 (ip), vehicle: saline 104 % of control | dose: 25.0 mg/kg/injection, schedule: Q01DX009 (ip), vehicle: saline 106 % of control | dose: 50.0 mg/kg/injection, schedule: Q01DX009 (ip), vehicle: saline 100 % of control and 101 % of control

O=C1c2ccccc2C(=O)c2sccc21
inactive: dose: 1.56 mg/kg/injection, schedule: Q01DX009 (ip), vehicle: saline with Tween-80 98 % of control | dose: 3.13 mg/kg/injection, schedule: Q01DX009 (ip), vehicle: saline with Tween-80 105 % of control | dose: 6.25 mg/kg/injection, schedule: Q01DX009 (ip), vehicle: saline with Tween-80 103 % of control | dose: 12.5 mg/kg/injection, schedule: Q01DX009 (ip), vehicle: saline with Tween-80 99 % of control | dose: 25.0 mg/kg/injection, schedule: Q01DX009 (ip), vehicle: saline with Tween-80 97 % of control | dose: 100.0 mg/kg/injection, schedule: Q01DX009 (ip), vehicle: saline with Tween-80 88 % of control

CCc1c2c(cc3c1[nH]c1ccccc13)C(=O)N(c1ccc(OC)cc1)C2=O
inactive: [1] 92 % of control | [2] 91 % of control | [3] 90 % of control

NC(=O)c1sc2ncccc2c1N
inactive: dose: 60.0 mg/kg/injection, schedule: Q01DX005 (ip), vehicle: saline with Tween-80 96 % of control | dose: 120.0 mg/kg/injection, schedule: Q01DX005 (ip), vehicle: saline with Tween-80 92 % of control | dose: 240.0 mg/kg/injection, schedule: Q01DX005 (ip), vehicle: saline with Tween-80 96 % of control

C1=C(c2ccccc2)[P+](c2ccccc2)(c2ccccc2)C=C(c2ccccc2)[P+]1(c1ccccc1)c1ccccc1
inactive: dose: 16.5 mg/kg/injection, schedule: Q04DX003 (ip), vehicle: saline 109 % of control | dose: 25.0 mg/kg/injection, schedule: Q04DX003 (ip), vehicle: saline 109 % of control | dose: 37.5 mg/kg/injection, schedule: Q04DX003 (ip), vehicle: saline 109 % of control

COc1ccc(CCN2C=CC(C#N)C(C(C)=O)=C2)cc1OC (configuration not stated)
inactive: [1] 99 % of control | [2] 94 % of control | [3] 90 % of control

CCCCN(CCCC)c1nsc(N2CCCCC2)n1
inactive: dose: 45.0 mg/kg/injection, schedule: Q01DX009 (ip), vehicle: saline with Tween-80 113 % of control | dose: 90.0 mg/kg/injection, schedule: Q01DX009 (ip), vehicle: saline with Tween-80 117 % of control | dose: 180.0 mg/kg/injection, schedule: Q01DX009 (ip), vehicle: saline with Tween-80 118 % of control

CCc1nc2c(cnn2C)c(=O)n1-c1ccc(C)cc1
inactive: [1] 97 % of control | [2] 101 % of control | [3] 98 % of control

CC(N)C(=O)NC(C)C(=O)NC(C)C(=O)O (configuration not stated)
inactive: [1] 104 % of control | [2] 106 % of control | [3] 101 % of control

Reference: PubChem BioAssay AID330 (DTP/NCI, 2004)
